Like-named read-outs stand apart in the source and are kept apart here.

For series [1], the system named is brain hemorrhage induced by 1 μM atorvastatin in zebrafish. Kind of series: Atorvastatin-induced brain hemorrhage (ICH) model in zebrafish, rescue by drugs. To be noted: for EC50: Danio rerio.
Procedure: Zebrafish were set up the night before the experiment day. In the morning of the experimental day, we put breeders together for mating and fertilization. 6 hours post-fertilization (hpf), statins was added into a 96-well plate holding 100 μl water with 7 to 8 fish eggs in each well, which was optimized through a serial pilot experiments. Statins were dissolved in DMSO and diluted with 0.5% of DMSO water into a working solution. 100 μl water containing 0.5% of DMSO was the medium for all wells in the final assessment.
For screening NIH compound libraries, 5 μM of each of the drugs from the library was added at 24 hpf into wells containing fish eggs treated with 1 μM ATV since 6 hpf. Hemorrhage positive control wells were treated with ATV but not treated with any drugs. Negative controls were not treated with any chemicals (fish with 0.5% of DMSO water). Geranylgeranyl pyrophosphate (GGPP, 4 mg/L) was used as positive rescue control.
Brain hemorrhage was assessed 72 hpf (66 hours after addition of statins) using stereomicroscopy by two observers. Percentage of brain hemorrhage was used as final readout. Compounds showing more than 70% of rescue of the brain hemorrhages in the initial test were re-tested to generate a final list of hits from the library.
All subsequent EC50 assays of positive compounds were performed with protocols established and optimized during the screening.
Series [2] relates to bbh mutant zebrafish (mutation in βPix), spontaneous ICH. Kind of series: bbh (bubblehead) mutant genetic model of brain hemorrhage. In kind it is in vivo, zebrafish (Danio rerio). To be noted: Danio rerio, read-out: EC50 to rescue brain hemorrhage, bbh Mutant Model. The text has this: A specific zebrafish line with a gene mutation called bubblehead (bbh) was used. This line has spontaneous ICH. Bubblehead phenotype is caused by a mutation in βPix. Adult homozygous zebrafish were viable and fertile. […] More than 85% of zebrafish larvae display an ICH phenotype.

In another series the test system is zebrafish larvae. Kind of series: Toxicity assay in zebrafish larvae (heart beat, blood flow, cardiac edema). Type of series: in vivo, zebrafish (Danio rerio). As to the method:
The embryos were collected and distributed into a 96-well plate in 0.5% DMSO, similar to efficacy assays. […] Heart beat and blood flow were ranked from 3 (normal heart beat or blood flow) to 0 (no heart beat or blood flow). Cardiac edema was ranked from 0 (normal heart without edema) to −3 (severe cardiac edema). […] The ratio of TC50/EC50 was calculated in each case.
Heart beat and blood flow were ranked from 3 (normal heart beat or blood flow) to 0 (no heart beat or blood flow). Cardiac edema was ranked from 0 (normal heart without edema) to −3 (severe cardiac edema). […] Data is expressed as mean±SEM from 3 experiments.

Series [3] has as its system β-Pix MO-induced hemorrhage in zebrafish. In words: βPix morpholino-induced hemorrhage in zebrafish, rescue by drugs. Type of series: in vivo, zebrafish (Danio rerio). As for the experimental part: Morpholino oligonucleotides (MOs) were custom-synthesized by Gene Tools (Carvalis, Oreg.); their sequences are shown in Table 1.
Danieau buffer (58 mM NaCl, 0.7 mM KCl, 0.4 mM MgSO4, 0.6 mM Ca(NO3)2, 5.0 mM HEPES, pH 7.6) was used to dilute the MO solutions to 0.2 mM final concentration. Individual wells were placed on a 1.0% agarose plate, in which the embryos were positioned. Afterwards, the MO solution was injected through the cell yolk into embryos of 1 to 4 cell-stage. The injected quantities varied from 0.5 to 15 ng.
bbhm292 zebrafish mutant has a hypomorphic mutation in βPix, resulting in ICH/BMH and hydrocephalus. The MO is βPixexon6-MO which blocks splicing of exon 6 and results in premature protein termination. […] Higher doses of βPixexon6-MO (up to 8 ng) result in a lack of blood circulation, and therefore no ICH/BMH was detected. Injection of 8 ng results in complete missplicing of βPix and therefore a null phenotype, whereas lower doses retain some normally spliced βPix. The βPixexon6-MO sequence is 5′-[…]-3′ [SEQ ID NO: 1]. 3Pixexon6-MO was injected into the embryos at the 1-2 cell stage, and compounds were added 12 hpf.
The first three morpholino pairs were good for the efficacy study. Efficacy assays were performed using Artemether (ARM, Sigma) and artemesunate (ART, GMP). […] Treating these morphants with the drugs rescued the ICH phenotype.

Setting [4] is: drug from Sequoia Research (UK).
The mark [5] stands for this setting: drug from Sigma, 3 dpf larvae, drug added 24 hpf.

For `CO[C@H]1O[C@@H]2O[C@@]3(C)CC[C@H]4[C@H](C)CC[C@@H]([C@H]1C)[C@@]24OO3` [Artemether], in series [1] (500 nmol/L drug, 3 dpf), the “Hemorrhage in zebrafish treated with 1 μmol/L atorvastatin and drug” value was “no hemorrhage was observed”. In addition, the “Efficacy on atorvastatin Hemorrhage” value in series [1] (ATV model induced by 1 μmol/L atorvastatin, inhibition of hemorrhage) was “+++++ (One + sign represents 20% inhibition on 1 μmol/L ATV or β-Pix MO-induced hemorrhage.)”. Moreover, in series [1] (read-out: EC50 (in nmol/L) on atorfvastatin model (μmol/L)), the EC50 worked out at 64 nmol/L. For the same compound, the EC50 in series [1] (read-out: EC50 to rescue brain hemorrhage, Statin Model) was 24.7 nmol/L. In addition, the EC50 in series [2] amounted to 37.5 nM. Also, in the series with zebrafish larvae (setting [4]), the “TC50 (Blood flow)” value amounted to 746.3 nmol/L, the “TC50/EC50 ratio (Blood flow)” value was “(9.2)”, the “TC50/EC50 ratio (Edema)” value is listed as “(6.5e+010)” and the “TC50/EC50 ratio (Heart beat)” value is reported as “(1.3e+011)”. In the series with zebrafish larvae (drug from Sigma), the “TC50/EC50 ratio (Blood flow)” value is “(39.5)”, the “TC50/EC50 ratio (Edema)” value was “(87.1)” and the “TC50/EC50 ratio (Heart beat)” value is “(94.3)”. In the series on zebrafish larvae (setting [5]), the “TC50 (Blood flow)” value amounted to 975.3 nmol/L, the “TC50 (Edema)” value came to 19.564 µM and the “TC50 (Heart beat)” value is recorded as 2328 nmol/L. In the series with zebrafish larvae (result in words), the “Safety in zebrafish embryos (EC50 compared with TC50)” value is given as “EC50 is much lower than TC50”. For the same compound, the EC50 in series [3] (Danio rerio, Table 6, read-out: EC50 to rescue hemorrhage induced by βPix - exon6 morpholino) turned out to be 51.6 ± 11.7 nM. In addition, the “Efficacy on β-Pix MO Hemorrhage” value in series [3] (inhibition of β-Pix MO-induced hemorrhage) is reported as “+++++ (One + sign represents 20% inhibition on 1 μmol/L ATV or β-Pix MO-induced hemorrhage.)”.

These data come from patent US10292991B2, “Small molecule therapeutic compounds that reduce the incidence of intracerebral hemorrhage and brain microhemorrhages” (St. Michaels Hospital, priority 2016, dated 2019).
